# From PMC8555546, “Conductance stability and Na+ interaction with Shab K+ channels under low K+ conditions” (Channels, 2021)
# Biological target: T1, Shab K+ channel (dShab 11) (Drosophila melanogaster, UniProt P17970)
# T1 construct: Shab cDNA (dShab 11) by recombinant baculovirus in Sf9 insect cells; homotetramer
# T1 sequence (P17970 1-1015): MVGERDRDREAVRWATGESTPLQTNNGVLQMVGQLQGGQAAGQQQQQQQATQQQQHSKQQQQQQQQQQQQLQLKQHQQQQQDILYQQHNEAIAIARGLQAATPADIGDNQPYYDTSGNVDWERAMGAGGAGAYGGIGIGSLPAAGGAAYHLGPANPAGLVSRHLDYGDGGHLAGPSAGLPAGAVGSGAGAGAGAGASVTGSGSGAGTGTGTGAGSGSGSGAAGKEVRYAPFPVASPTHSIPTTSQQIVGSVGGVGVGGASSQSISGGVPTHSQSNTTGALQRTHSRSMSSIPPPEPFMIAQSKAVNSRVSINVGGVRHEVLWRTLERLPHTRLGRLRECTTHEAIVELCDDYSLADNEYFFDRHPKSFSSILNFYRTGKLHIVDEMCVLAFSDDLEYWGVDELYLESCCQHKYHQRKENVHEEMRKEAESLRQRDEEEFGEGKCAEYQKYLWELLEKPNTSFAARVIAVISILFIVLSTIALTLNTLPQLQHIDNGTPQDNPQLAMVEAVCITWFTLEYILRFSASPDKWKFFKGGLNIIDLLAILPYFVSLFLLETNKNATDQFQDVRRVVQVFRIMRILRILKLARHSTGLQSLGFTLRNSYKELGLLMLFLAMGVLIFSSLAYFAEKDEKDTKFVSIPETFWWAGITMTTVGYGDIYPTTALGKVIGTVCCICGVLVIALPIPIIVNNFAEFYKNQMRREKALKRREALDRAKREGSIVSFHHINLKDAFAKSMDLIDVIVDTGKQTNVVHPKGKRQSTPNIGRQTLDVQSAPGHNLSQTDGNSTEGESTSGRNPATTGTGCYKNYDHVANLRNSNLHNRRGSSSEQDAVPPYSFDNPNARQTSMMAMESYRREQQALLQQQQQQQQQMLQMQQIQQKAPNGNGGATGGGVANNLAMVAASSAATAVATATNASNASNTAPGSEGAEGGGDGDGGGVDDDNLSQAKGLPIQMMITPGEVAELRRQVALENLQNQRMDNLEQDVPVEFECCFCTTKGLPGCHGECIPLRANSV
# Test: whole-cell patch clamp, block of K+ current, Michaelis-Menten fit
# Type: cell-based
compound,measurement,value
CC[N+](CC)(CC)CC [TEA],Kd,10.8 mM
